Series [1] deals with human SHSY-5Y neuroblastoma tumour xenograft. Description: In vivo cell proliferation test, SHSY-5Y cells xenografted into athymic mice. More on the design: species or system athymic balb-c NCr-nu/nu mice. As to conditions: for reduction in the size of the tumour: after 21 days. As to the method:
3/In vivo Cell Proliferation Test on Cells of the SHSY-5Y Type with Compound 1:
Cancerous cells from human SHSY-5Y neuroblastomas (Code ATCC: CRL-2266) are cultured in DMEM medium (Dulbecco's Modified Eagle's Medium) containing 100 U/ml of penicillin and 100 μg/ml of streptomycin sulphate, complemented with 10% foetal calf serum. The cells thus cultured are then xenografted by sub-cutaneous route into the flanks of athymic balb-c NCr-nu/nu mice, aged 4 to 6 weeks.
After a latent period of several days following the graft, the SHSY-SY cells proliferate and form a small tumour (approximately 70 mm^3) which is obvious under the flank of the animal.
Compound 1 is, at this stage of growth of the tumour, injected by intra-peritoneal route in doses of 5 and 10 mg/kg.
The results are reproduced in FIG. 2 describing the effect of compound 1 on growth kinetics and tumour volume.

A short description of series [2]: Toxicity test in xenografted athymic mice (weight of the animals). It counts as in vivo. As to conditions: 5 and 10 mg/kg intra-peritoneal. As for the experimental part: 4/Toxicity Test of Compound 1:
Cancerous cells from human SHSY-5Y neuroblastomas (Code ATCC: CRL-2266) are cultured in DMEM medium (Dulbecco's Modified Eagle's Medium) containing 100 U/ml of penicillin and 100 μg/ml of streptomycin sulphate, complemented with 10% foetal calf serum. The cells thus cultured are then xenografted by sub-cutaneous route into the flanks of athymic mice.
After a latent period of several days, the SHSY-5Y cells proliferate and form a small, obvious tumour (approximately 70 mm^3).
Compound 1, at this stage of the tumour's growth, is injected by intra-peritoneal route in doses of 5 and 10 mg/kg.
The results are reproduced in FIG. 3 describing the development of the weight of the animals as a function of time, which is an indicator of the possible toxicity of the products tested in this athymic mouse model.

No end group written: not given here.

On to “YTVLSVGPGGLRSGRLPLQPRVQLDER-NH2 [Compound 1]”, for which, in series [1] (5 mg/kg intra-peritoneal), the “growth kinetics of the tumour” value is reported as “slowing down” and the “reduction in the size of the tumour” value is reported as “approximately 20%”. Also, in series [1] (10 mg/kg intra-peritoneal), the “growth kinetics of the tumour” value is on record as “very clear slowing down” and the “reduction in the size of the tumour” value is on record as “approximately 50%”. For the same substance, the anti-tumour activity entry in series [1] (intra-peritoneal, 5 and 10 mg/kg, SHSY-5Y xenograft) is “dose-dependant anti-tumour activity”. In addition, the toxicity entry in series [2] (inferred from animal weight) is “apparent absence of toxicity”. Moreover, the “effect on the weight of the animals” value in series [2] (xenografted athymic mice) was “no effect”.

Values taken from patent US7897578B2, “Peptides with anti-proliferative activity” (Societe de Conseils de Recherches et d'Applications …, priority 2006, dated 2011).
